According to ChEMBL document CHEMBL3046217, “Synthesis, antimicrobial, antioxidant, anti-inflammatory, and analgesic activities of some new 3-(2-thienyl)pyrazole-based heterocycles” (Med Chem Res, 2012):
In brackets after ≈: the same amount, converted by molar mass. Activity calls are given as the source filed them. No cut-off for these calls is given here.

Columns and labels:
Pseudomonas aeruginosa = assay: Antimicrobial activity against Pseudomonas aeruginosa ATCC 29953 after 24 hr by agar diffusion method; format: functional; conditions: for MIC: Pseudomonas aeruginosa, ATCC 29953, 24 h
Candida albicans = assay: Antimicrobial activity against Candida albicans NRRLY-477 after 24 hr by agar diffusion method; format: functional; conditions: for MIC: Candida albicans, NRRLY-477, 24 h
Bacillus spizizenii = assay: Antimicrobial activity against Bacillus subtilis subsp. spizizenii ATCC 6633 after 24 hr by agar diffusion method; format: functional; conditions: for MIC: Bacillus spizizenii, ATCC 6633, 24 h
Enterococcus faecalis = assay: Antimicrobial activity against Enterococcus faecalis ATCC 29212 after 24 hr by agar diffusion method; format: functional; conditions: for MIC: Enterococcus faecalis, ATCC 29212, 24 h
Saccharomyces cerevisiae = assay: Antimicrobial activity against Saccharomyces cerevisiae after 24 hr by agar diffusion method; format: functional; conditions: for MIC: Saccharomyces cerevisiae, 24 h
Mycolicibacterium phlei = assay: Antimicrobial activity against Mycobacterium phlei after 24 hr by agar diffusion method; format: functional
Salmonella typhi = assay: Antimicrobial activity against Salmonella enterica subsp. enterica serovar Typhi after 24 hr by agar diffusion method; format: functional; conditions: for MIC: Salmonella enterica, 24 h
Enterobacter cloacae = assay: Antimicrobial activity against Enterobacter cloacae ATCC 3047 after 24 hr by agar diffusion method; format: functional; conditions: for MIC: Enterobacter cloacae, ATCC 3047, 24 h
Escherichia coli = conditions: ATCC 25922
Description: Antimicrobial activity against Escherichia coli ATCC 25922 after 24 hr by agar diffusion method

Staphylococcus aureus = assay: Antimicrobial activity against Staphylococcus aureus ATCC 29213 after 24 hr by agar diffusion method; format: functional; conditions: for MIC: Staphylococcus aureus, ATCC 29213, 24 h
Klebsiella pneumoniae = assay: Antimicrobial activity against Klebsiella pneumoniae ATCC 13883 after 24 hr by agar diffusion method; format: functional; conditions: for MIC: Klebsiella pneumoniae, ATCC 13883, 24 h
[1] = test system: Radical scavenging activity; assay: Antioxidant activity assessed as as DPPH radical scavenging activity by spectrophotometry; format: functional
Rattus norvegicus = assay: Anti-inflammatory activity in Rattus norvegicus Sprague-Dawley (rat) assessed as inhibition of carrageenan-induced paw edema at 20 mg/kg, po administered 1 hr before carrageenan challenge and measured hourly for 4-hr post drug administration by mercury plethysmometer; format: functional, organism-based; set-up: dose 20 mg/kg
Aspergillus niger = assay: Antimicrobial activity against Aspergillus niger after 24 hr by agar diffusion method; format: functional, organism-based
Mus musculus = assay: Analgesic activity in Mus musculus Swiss albino (mouse) assessed as inhibition of acetic acid-induced writhing at 20 mg/kg, po administered 30 min before acetic acid challenge measured for 20 min after acetic acid injection […]; format: functional, organism-based; set-up: dose 20 mg/kg

Compound | inhibition zone (IZ) (Pseudomonas aeruginosa) | inhibition zone (IZ) (Candida albicans) | inhibition zone (IZ) (Bacillus spizizenii) | MIC (Bacillus spizizenii) [µg/mL] | inhibition zone (IZ) (Enterococcus faecalis) | inhibition zone (IZ) (Saccharomyces cerevisiae) | inhibition zone (IZ) (Mycolicibacterium phlei) | inhibition zone (IZ) (Salmonella typhi) | inhibition zone (IZ) (Enterobacter cloacae) | MIC (Saccharomyces cerevisiae) [µg/mL] | IZ (Escherichia coli) | inhibition zone (IZ) (Staphylococcus aureus) | inhibition zone (IZ) (Klebsiella pneumoniae) | IC50 [1] [µg/mL] | MIC (Enterobacter cloacae) [µg/mL] | MIC (Enterococcus faecalis) [µg/mL] | inhibition (Rattus norvegicus) | Activity (Aspergillus niger) | MIC (Staphylococcus aureus) [µg/mL] | inhibition (Mus musculus) | further results
O=C(O)c1cn(C2CC2)c2cc(N3CCNCC3)c(F)cc2c1=O [CIPROFLOXACIN] | 24 mm | inactive | 22 mm | 10.4 (≈ 31.4 µM) | 23 mm | inactive | 22 mm | 21 mm |  |  |  |  |  |  |  |  |  |  |  |  | MIC (Salmonella typhi): 41.6 µg/mL (≈ 126 µM)
CC(=O)N1CCN(c2ccc(OCC3COC(Cn4ccnc4)(c4ccc(Cl)cc4Cl)O3)cc2)CC1 (racemic) [KETOCONAZOLE] | inactive | 22 mm | inactive |  | inactive | 23 mm | inactive | inactive | inactive | 5.2 (≈ 9.78 µM) | inactive | inactive | inactive |  |  |  |  |  |  |  | MIC (Candida albicans): 10.4 µg/mL (≈ 19.6 µM)
N/C(=N/N=C\c1cn(-c2ccccc2)nc1-c1cccs1)SCC(=O)Nc1cccs1 | 15 mm | 15 mm | 23 mm | 83.3 (≈ 179 µM) | 21 mm | inactive | inactive | inactive | 28 mm |  | inactive | 28 mm | 18 mm | 1000 (≈ 2140 µM) | 20.8 (≈ 44.6 µM) | 83.3 (≈ 179 µM) | Active | inactive | 20.8 (≈ 44.6 µM) | Active | MIC (Klebsiella pneumoniae): 167 µg/mL (≈ 357 µM)
Cc1nc(N/N=C\c2cn(-c3ccccc3)nc2-c2cccs2)sc1/N=N/c1ccc(F)cc1 | 19 mm | 17 mm | 22 mm | 167 (≈ 342 µM) | 16 mm | 31 mm | inactive | inactive | 26 mm | 20.8 (≈ 42.7 µM) | inactive | 21 mm | 18 mm | 25 (≈ 51.3 µM) | 41.6 (≈ 85.3 µM) |  | Active | inactive | 41.8 (≈ 85.7 µM) | Active | MIC (Pseudomonas aeruginosa): 333 µg/mL (≈ 684 µM); MIC (Candida albicans): 167 µg/mL (≈ 342 µM); MIC (Klebsiella pneumoniae): 167 µg/mL (≈ 342 µM)
O=C(O)Cc1ccccc1Nc1c(Cl)cccc1Cl |  |  |  |  |  |  |  |  |  |  |  |  |  |  |  |  | Active |  |  | Active | 
Clc1ccc(C2=NNC(c3cn(-c4ccccc4)nc3-c3cccs3)C2)cc1 (centres undefined) | 26 mm | 17 mm | 17 mm | 333 (≈ 823 µM) | 21 mm | 31 mm | inactive | inactive | 21 mm | 20.8 (≈ 51.4 µM) | inactive | 20 mm | inactive | 750 (≈ 1850 µM) | 83.3 (≈ 206 µM) | 41.6 (≈ 103 µM) | Active | inactive | 333 (≈ 823 µM) | Active | MIC (Pseudomonas aeruginosa): 167 µg/mL (≈ 411 µM); MIC (Candida albicans): 167 µg/mL (≈ 411 µM)
C(=N/Nc1nc2nc3ccccc3nc2s1)/c1cn(-c2ccccc2)nc1-c1cccs1 | 28 mm | inactive | 26 mm | 41.6 (≈ 91.7 µM) | 21 mm | 28 mm | 15 mm | inactive | 18 mm | 41.6 (≈ 91.7 µM) | inactive | 21 mm | inactive | 500 (≈ 1100 µM) | 333 (≈ 735 µM) | 167 (≈ 367 µM) | Active | inactive | 333 (≈ 735 µM) | Active | MIC (Pseudomonas aeruginosa): 41.6 µg/mL (≈ 91.7 µM)
O=C1CS/C(=N\N=C/c2cn(-c3ccccc3)nc2-c2cccs2)N1 | inactive | inactive | 19 mm | 167 (≈ 453 µM) | 15 mm | 29 mm | inactive | inactive | 13 mm | 41.6 (≈ 113 µM) | inactive | 29 mm | inactive | 500 (≈ 1360 µM) |  |  | Active | inactive | 20.8 (≈ 56.6 µM) | Active | 
NC(=S)N/N=C\c1cn(-c2ccccc2)nc1-c1cccs1 | 15 mm | 16 mm | 29 mm | 20.8 (≈ 63.5 µM) | 13 mm | 30 mm | 16 mm | 28 mm | 26 mm | 20.8 (≈ 63.5 µM) | inactive | 21 mm | 28 mm | 500 (≈ 1530 µM) | 20.8 (≈ 63.5 µM) |  | Active | inactive | 83.3 (≈ 254 µM) | Active | MIC (Salmonella typhi): 20.8 µg/mL (≈ 63.5 µM); MIC (Klebsiella pneumoniae): 20.8 µg/mL (≈ 63.5 µM)
Cc1ccc(NC(=S)N2N=C(c3ccc(Cl)cc3)CC2c2cn(-c3ccccc3)nc2-c2cccs2)cc1 (centres undefined) | inactive | 15 mm | 21 mm | 167 (≈ 301 µM) | 21 mm | inactive | 13 mm | inactive | 16 mm |  | inactive | 15 mm | 21 mm | 500 (≈ 902 µM) |  | 167 (≈ 301 µM) | Active | inactive |  | Active | MIC (Klebsiella pneumoniae): 333 µg/mL (≈ 601 µM)
C(=N/Nc1nc(-c2cc3ccccc3o2)cs1)/c1cn(-c2ccccc2)nc1-c1cccs1 | 14 mm | inactive | 23 mm | 167 (≈ 356 µM) | 15 mm | inactive | inactive | inactive | 15 mm |  | inactive | 21 mm | 15 mm | 25 (≈ 53.5 µM) |  |  | Active | inactive | 167 (≈ 356 µM) | Active | 
O=C(/C=C/c1cn(-c2ccccc2)nc1-c1cccs1)c1ccc(Cl)cc1 | 19 mm | 18 mm | 21 mm | 167 (≈ 426 µM) | 21 mm | 29 mm | 15 mm | 24 mm | 24 mm | 20.8 (≈ 53.2 µM) | inactive | 21 mm | 18 mm | 1000 (≈ 2560 µM) | 41.6 (≈ 106 µM) | 83.3 (≈ 213 µM) | Active | inactive | 167 (≈ 426 µM) | Active | MIC (Pseudomonas aeruginosa): 333 µg/mL (≈ 853 µM); MIC (Candida albicans): 167 µg/mL (≈ 426 µM); MIC (Salmonella typhi): 83.3 µg/mL (≈ 213 µM); MIC (Klebsiella pneumoniae): 167 µg/mL (≈ 426 µM)
O=c1oc2ccccc2cc1-c1csc(N/N=C\c2cn(-c3ccccc3)nc2-c2cccs2)n1 | inactive | inactive | 21 mm | 167 (≈ 336 µM) | 22 mm | inactive | inactive | inactive | 14 mm |  | inactive | 11 mm | 14 mm | 25 (≈ 50.4 µM) |  | 83.3 (≈ 168 µM) | Active | inactive |  | Active | 
